We go through four compounds from paper PMC11267533, “Ligandability at the Membrane Interface of GPx4 Revealed through a Reverse Micelle Fragment Screening Platform” (JACS Au, 2024).

The target of data set [1] is T1, GPx4 embedded in a mmRM (membrane-bound GPx4) (Homo sapiens, UniProt P36969, U73G).
T1 construct: Truncated U46G-GPx4 with a TEV cleavable poly-histidine tag was inserted into vector; poly-histidine tag with TEV cleavage site; host or cells: BL21 (DE3) E. coli
T1 sequence (P36969 1-170 isoform P36969-2 U46G): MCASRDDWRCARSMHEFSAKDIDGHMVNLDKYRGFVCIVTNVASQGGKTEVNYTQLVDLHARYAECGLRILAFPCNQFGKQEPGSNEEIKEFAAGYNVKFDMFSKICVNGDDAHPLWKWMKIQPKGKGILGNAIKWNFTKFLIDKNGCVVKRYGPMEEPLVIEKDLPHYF
As to the kind of experiment: NMR (15N-HSQC) titration of fragments against GPx4 embedded in DLPC/DPC mmRM, apparent Kd. In kind it is binding. The settings on record: ± standard error of global Kd fit. From the text: To assess whether the fragment hits are bound specifically to GPx4 and to calculate affinity, we performed NMR-based titrations. Chemical shift changes that approach saturation in a structurally localized manner target indicate specific binding.[24] This allows true positive hits to be separated from false positives and weak or nonspecific binders. Additionally, NMR-based titrations allow for the extraction of a binding affinity (Kd). To calculate apparent Kd values, CSP cutoffs were used to isolate the resonances with most shifting using 1 standard deviation above the average CSP. All 14 fragments identified from the deconvolutions were titrated up to 400 μM or 1 mM if needed. Of the 14, 9 had apparent Kds less than 1 mM and were identified as hits. Observed here is a 0.47% hit rate with best affinities in the μM range for the membrane-bound form of GPx4 and is consistent with ligandable and potentially druggable targets.[14],[57] […] The remaining five fragments, 10–14, were ruled out as weaker (>∼1 mM) or nonspecific binders. Weak or nonspecific binding could indicate that fragments partitioning to the mmRM surface and perturb the protein spectrum through a simple change in the chemical environment at the interface, among other possible nonspecific effects. […] We note that the weaker and nonspecific fragments were only eliminated due to interaction modes that are too weak or unproductive for advancement toward inhibitors; yet, binding was nevertheless detected. […] We note here that apparent Kd values reported in this study account for a total amount of fragment and protein within the mmRM sample and are not corrected for any potential concentrating effect due to localization of fragment to the mmRM surface or water phase.
NMR samples were prepared with ^15N-isotopically labeled protein with 10% v/v of d-pentane as the lock solvent (Sigma-Aldrich, St. Louis, MO). All NMR spectra were collected at 25 °C on a 700 MHz Bruker Avance III instrument. All NMR spectra were processed using NMRPipe[66] and analyzed using NMRFAM-Sparky.[67] Chemical shifts for GPx4 (BMRB 50955) were assigned from those previously published.[52] Chemical shift perturbations from ^15N-HSQC spectra were calculated using the following formula [drawing 1] where Δ^1H and Δ^15N are the changes in ^1H and ^15N chemical shifts, respectively.
The 14 fragments isolated from deconvolutions were purchased from Life Chemicals (fragments 1, 4, 6, and 11, and 12–14), Combi-Blocks (2, 3, 5, 9, and 10), or ChemBridge Hit2Lead (7 and 8). All fragment 1 and 5 analogues were also purchased from ChemBridge Hit2Lead. Fragments and analogues purchased from Life Chemicals and Hit2Lead are 90+% pure, while the fragments purchased from Combi-Blocks ranged from 95 to 97% pure. The day prior to the titration, a double-volume sample of encapsulated GPx4 was made before being split up into two separate vials. Half of the sample was added to the vial containing predried fragment corresponding to 400 μM or 1 mM. […] If they were, then the two samples were mixed to produce varying concentrations and to measure a titration curve. The top-shifting resonances were determined by calculating the average CSP at 400 μM or 1 mM and 1 and 2 standard deviations (σ) above that average. The CSP for the resonance at each fragment concentration was extracted and fit to a curve using an affinity equation that accounts for ligand depletion [drawing 2]
Any resonance producing a curve with an R^2 below 0.85 was removed, and the remaining resonances were then used to fit a global apparent Kd curve for the fragment hit. Standard error for Kd from the global fit of all of the selected residues is reported.

The nature of data set [2]: Fragment partitioning in DHPC/DMPC bicelles by 2D 1H-1H NOESY. The data set is classed as physicochemical. The settings on record: 5 mM fragment, 100% D2O. An excerpt: To confirm partitioning behavior, we tested fragments in DHPC/DMPC bicelles, which use a bulk aqueous solvent, and the hydrophobic phase is confined to the bicelle interior. To successfully collect NOESY data, the sample solvent was composed of 100% D2O. […] Together, the results highlight the partitioning behavior of fragments that bind to GPx4. Hydrophilic, hydrophobic, or fragments that partition to the surfactant shell are all capable of binding to the membrane-bound state of GPx4 and may be detected using this method.
Partitioning coefficients for fragment hits and analogues were calculated using a Marvin Log D calculator (Chemaxon) and were used to prioritize fragments for 2D NOESYs. mmRMs were premade as previously described and loaded with 5 mM dried fragment 1, 5, or 6 before shaking overnight. A high concentration of fragments is needed for these experiments to observe the intermolecular NOEs between the fragments and the membrane model components. For the DHPC/DMPC samples, the q = 1.0 bicelles were constructed routinely,[55] as described in the Supporting Information, with an additional step to ensure the complete removal of water before experimentation. An aliquot of buffer (100 mM Bis-Tris pH 6.0, 100 mM NaCl, and 10 mM DTT) was frozen and freeze-dried overnight to remove residual water. The dried buffer was then resuspended in 100% D2O, mixed, and frozen before another round of freeze-drying. The components were then resuspended in 100% D2O again before being incorporated into the DHPC fraction of the bicelle. The DHPC solution was then mixed with dried DMPC, and bicelle formation proceeded. The NOESY experimental design was based on a previous work.[60] All NMR spectra were collected at 25 °C on a 700 MHz Bruker Avance III instrument. The 2D data was collected with a 90° pulse width between 10.2 and 11.0 μs, which was optimized prior to each experiment. 128 complex increments were collected in the State-TPPI mode with 8 scans per increment, 2 s recycle time, and 250 ms mixing time. […]

[3] abbreviates: Table 1, GPx4 in DLPC/DPC mmRM, NMR titration up to 400 μM or 1 mM, read-out: Kd (apparent).
[4] abbreviates: Table 2, analogues of fragment 5, GPx4 in mmRM, read-out: Apparent Kd.

“And” between values parts separate entries of the source, which are not always exact repeats. Identical values can stand only once. Like-named read-outs stand apart in the source and are kept apart here.

Consider `COCCNCc1ccncc1.Cl` [Fragment 6, (2-methoxyethyl)(4-pyridinylmethyl)amine hydrochloride], for which the Kd in data set [1] (setting [3]) amounted to 230 ± 60 µM. Also, in data set [2], the “Partitioning in bicelles (intermolecular NOEs)” value (from here on “Partitioning in bicelles”) is recorded as “no NOE cross-peaks to bicelle surfactants were observed”.
Consider `O=c1oc2c(-c3ccc(Cl)c(Cl)c3)cc(O)cc2s1` [Analog 5.5], for which the Kd in data set [1] (setting [4]) is ~30 µM and 30 µM.
Turning to `O=c1oc2ccc(O)cc2s1` [Fragment 5, 5-hydroxy-1,3-benzoxathiol-2-one], the Kd in data set [1] (setting [3]) and in data set [1] (setting [4]) was 220 ± 90 µM in each case. In data set [2], the “Partitioning in bicelles” value is on record as “full partitioning into the hydrophobic core of the bicelles”.
As to `O=c1cc(Nc2ccccc2)cc[nH]1` [Fragment 1, 4-(phenylamino)-1,2-dihydropyridin-2-one], the Kd in data set [1] (setting [3]) is 105 ± 30 µM. In addition, the “Partitioning in bicelles” value in data set [2] is “partitions to the bicelle”.
